Reference: US11103512B2, “Crystalline form of (S)-[2-chloro-4-fluoro-5-(7-morpholin-4-yl-quinazolin-4-yl)phenyl]-(6-methoxy-pyridazin-3-yl)-methanol” (Merck Patent GmbH, priority 2017, dated 2021)
In brackets after ≈: the same amount, converted by molar mass.

Legend:
[1] = test system: DNA-PK autophosphorylation in cancer cell lines; settings: background statement, no values; cited from earlier work
[2] = target: DNA-dependent protein kinase (DNA-PK) (Homo sapiens, UniProt P78527); settings: background statement, no values; cited from earlier work
[3] = Solubility measurements in biorelevant media (24 h shake, HPLC); type: physicochemical
[4] = Water vapour sorption isotherm (DVS, 25° C.); type: physicochemical; settings: for water uptake / hygroscopic behaviour (in words): water vapour sorption isotherm, FIG. 3
Excerpt: Form I can therefore be classified acc. to Ph. Eur. Criteria (section 5.11.) as not hygroscopic. The max. water uptake level (Δmmax at 98% rh) of Form I is <1% m/m. […] This non-hygroscpopic behaviour of Form I is advantageous both in case of using the material as a starting material, as it readily lends itself to storage, as well as using it “as is” in a pharmaceutical dosage form.
• Powder X-ray diffractions (XRPD) were obtained by standard techniques as described in the European Pharmacopeia 7th Edition chapter 2.9.33 (Cu-Kai radiation, λ=1.5406 Å, Stoe StadiP 611 KL transmission diffractometer, ambient temperature); and in particular • For the amorphous form: The XRPD measurement was performed in transmission geometry with Cu-Kα1 radiation on a Stoe StadiP 611 diffractometer equipped with Mythen1K Si-strip detector (PSD). Approximately 5-20 mg of the sample were prepared on a combinatorial 96-well-plate sample holder comprising a mostly amorphous Kapton® foil on the bottom of the wells. Measurement was carried out by setting following parameters: • angular range: −36°−36 °2θ folded to 0-36 °2θ • angular resolution: 0.03 °2θ • PSD step with: 4 °2θ • measurement time: 30 s/PSD-step • generator settings: 40 mA, 40 kV • For the crystalline Form I: The measurement was performed in transmission geometry with Cu-Kα1 radiation on a Stoe StadiP 611 diffractometer equipped with Mythen1K Si-strip detector (PSD). Approximately 10-100 mg of the sample were prepared between amorphous films. Measurement was carried out by setting following parameters: • angular range: 1°-41 °2θ • angular resolution: 0.015 °2θ • PSD step with: 0.49 °2θ • measurement time: 15 s/PSD-step • generator settings: 40 mA, 40 kV • DSC: • For the amorphous form: • Temperature modulated DSC (TOPEM®) was acquired on a Mettler-Toledo heat-flux Differential Scanning Calorimeter DSC 1 system. Approximately 0.5 mg sample amount were weighed accurately in a 40 μl Aluminium pan which was hermetically closed by a lid. The scan was carried out from 0° C. to 250° C. with a linear heating rate of 2 K/min, overlapped by a non-linear puls-modulated temperature programme with a pulse height of ±0.5 K and a stochastic pulse width from 15 s (min) to 45 s (max). Nitrogen purge gas at 50 mL/min was used. • For crystalline Form I: • DSC measurement was acquired on Mettler-Toledo heat-flux Differential Scanning Calorimeter system DSC 821e. Approximately 1-5 mg sample amount were weighed accurately in a 40 μl Aluminium pan with pierced lid. The scan was carried out from 25° C. to 350° C. with a linear heating rate of 5 K/min and a nitrogen purge gas at 50 mL/min. • TGA: • Sample was investigated on a Mettler-Toledo Thermogravimetric Analyser TGA 851 with autosampler, using a nitrogen inert gas atmosphere (flow 50 mL/min). Approximately 5-20 mg sample amount were weighed accurately in a 100 μl Aluminium pan and hermetically closed by Aluminium lids. Just before insertion to the oven the lid was pierced by a needle of the autosampler system. Scans were carried out from 25° C. to 350° C. at 5 K/min. The result was baseline-corrected with a blank run from an empty 100 μl Aluminium pan of the same type, using the identical temperature profile. • Water Vapour Sorption Isotherm: • Approximately 1-40 mg sample amount were weighed accurately into a 100 μl Al pan and hung into the sample position of the DVS instrument with microbalance and incubator (DVS-Intrinsic; Surface Measurement Systems, SMS). […]

[5] = Thermal behaviour by DSC and TGA; type: physicochemical; settings: DSC and TGA profiles
Description: By contrast, the amorphous material decomposes at 170° C. (FIG. 2). The crystalline material therefore lends itself to further processing that involves high temperatures, such as hot melt extrusion and melt granulation.
• Powder X-ray diffractions (XRPD) were obtained by standard techniques as described in the European Pharmacopeia 7th Edition chapter 2.9.33 (Cu-Kai radiation, λ=1.5406 Å, Stoe StadiP 611 KL transmission diffractometer, ambient temperature); and in particular • For the amorphous form: The XRPD measurement was performed in transmission geometry with Cu-Kα1 radiation on a Stoe StadiP 611 diffractometer equipped with Mythen1K Si-strip detector (PSD). Approximately 5-20 mg of the sample were prepared on a combinatorial 96-well-plate sample holder comprising a mostly amorphous Kapton® foil on the bottom of the wells. Measurement was carried out by setting following parameters: • angular range: −36°−36 °2θ folded to 0-36 °2θ • angular resolution: 0.03 °2θ • PSD step with: 4 °2θ • measurement time: 30 s/PSD-step • generator settings: 40 mA, 40 kV • For the crystalline Form I: The measurement was performed in transmission geometry with Cu-Kα1 radiation on a Stoe StadiP 611 diffractometer equipped with Mythen1K Si-strip detector (PSD). Approximately 10-100 mg of the sample were prepared between amorphous films. […]

Row | Compound | inhibition of DNA-PK autophosphorylation (in words) [1] | inhibition of DNA-PK activity (in words) [2] | solubility at 24 h ([3]; FaSSIF (fasted state simulated intestinal fluid), pH 6.5, thermodynamic from solid, FaSSIF, pH of medium 6.5, 37 °C) | solubility at 24 h ([3]; FeSSIF (fed state simulated intestinal fluid), pH 5, thermodynamic from solid, FeSSIF, pH of medium 5.0, 37 °C) | solubility at 24 h ([3]; SGF (simulated gastric fluid without pepsin), pH 1.2, simulated gastric fluid, thermodynamic from solid, SGF, pH of medium 1.2, 37 °C) | max. water uptake level (Δmmax at 98% rh) ([4]; 98% rh, 25° C.) | hygroscopicity classification acc. to Ph. Eur. criteria (section 5.11.) ([4]; dm (80% rh−40% rh), 25° C.) | water uptake levels ([4]; relative humidity range 40-80% rh, 25° C.) | melting/decomposition temperature (thermal stability) [5] | water uptake / hygroscopic behaviour (in words) [4] | water uptake / hygroscopic behaviour (in words) ([4]; listed as amorphous solid form)
1 | COc1ccc([C@@H](O)c2cc(-c3ncnc4cc(N5CCOCC5)ccc34)c(F)cc2Cl)nn1 [(S)-[2-chloro-4-fluoro-5-(7-morpholin-4-yl-quinazolin-4-yl)phenyl]-(6-methoxy-pyridazin-3-yl)-methanol] | potent inhibition | potent and selective inhibitor | – | – | – | – | – | – | – | – | –
2 | COc1ccc([C@@H](O)c2cc(-c3ncnc4cc(N5CCOCC5)ccc34)c(F)cc2Cl)nn1 [Form I, (S)-[2-chloro-4-fluoro-5-(7-morpholin-4-yl-quinazolin-4-yl)phenyl]-(6-methoxy-pyridazin-3-yl)-methanol] | – | – | 3 µg/mL (≈ 6.23 µM) | 17 ± 1 µg/mL (≈ 35.3 µM) | 891 ± 33 µg/mL (≈ 1850 µM) | < 1 % m/m | not hygroscopic (dm (80% rh−40% rh)<0.2 wt %: not hygroscopic) | < 1 % m/m | above 200 °C | – | –
3 | COc1ccc([C@@H](O)c2cc(-c3ncnc4cc(N5CCOCC5)ccc34)c(F)cc2Cl)nn1 [amorphous material, (S)-[2-chloro-4-fluoro-5-(7-morpholin-4-yl-quinazolin-4-yl)phenyl]-(6-methoxy-pyridazin-3-yl)-methanol] | – | – | – | – | – | – | – | – | 170 °C | significant water uptake | hygroscopic
